Here are results for 8 substances from patent publication US20260062449A1, “PEPTIDE COMPOSITIONS AND METHODS OF USE” (ONL Therapeutics, Inc., priority 2022, published 2026).

No end group written: not given here.

Data set [1] in a line: Aqueous solubility / solution behaviour of Met-12. It counts as physicochemical. An excerpt: Experiments have clearly shown that Met-12 has to be dosed as a solution, both in vitro and in vivo, to show optimal activity, and producing such solutions in a largely aqueous medium has proven to be very difficult, especially under conditions which are acceptable for intravitreal injection. Dosing of suspensions or gels of Met-12 leads to major losses of potency. […] Despite extensive development work, the only solution formulations of Met-12 which have been found involve some very low pH solution injections (≤pH 2.8) or neat DMSO injections, all of which are suboptimal for intravitreal injections.

In a further data set the test system is Jurkat cells. Briefly: Cell viability preservation in vitro: cell confluence of Jurkat cells after 24-hour incubation with FasL. Type of data set: cell-based. The conditions noted are these: recombinant His-tagged FasL along with anti-His antibody. The method, then: Compounds (oligopeptides) of the present disclosure were assayed for their ability to effect cell confluence following a 24-hour incubation. Jurkat cells were incubated for 24 hours with varying concentrations of compound (i.e., 200, 66.7, 22.2, 7.4, 2.5, 0.8, 0.3, and 0.1) and with or without recombinant His-tagged FasL along with an anti-His antibody. After the 24-hour incubation, cell confluence was quantified using an S3 Incucyte Imaging System (Sartorius) and a Vi-CELL XR Cell Viability Analyzer (Beckman Coulter) and compared to controls (cells incubated in the absence of compound and cells incubated with a known Fas inhibitor).

As to “HHIYLGAVNYIY [Met-12, H^60HIYLGAVNYIY^71]”, in data set [1], the aqueous solubility result is listed as “extremely poor aqueous solubility”. For the same substance, the “loss of material upon filtration” value in data set [1] (apparently clear 10 rang/mL solution in 20 mM citrate buffer pH 2.8) is “considerable loss of material upon filtration”.
For “HHIYLGAVNYIY-NH2 [Compound A, reference compound]”, in the data set on Jurkat cells, the “Activity: lowest concentration that prevented loss of cell confluency” value is “A (cell protection at x < 1.0 μM)”.
In the case of “NH2-HHIAAGAVNYIY-C(O)NH2 (H-HHIAAGAVNYIY-NH2) [Compound 6]”, the “Activity: lowest concentration that prevented loss of cell confluency” value in the data set on Jurkat cells is reported as “B (cell protection at 1.0 < x < 10.0 μM)”.
Regarding “NH2-HHIYLGGGGGNYIY-C(O)NH2 (H-HHIYLGGGGGNYIY-NH2) [Compound 7]”, in the data set with Jurkat cells, the “Activity: lowest concentration that prevented loss of cell confluency” value is “B (cell protection at 1.0 < x < 10.0 μM)”.
Take “NH2-HHIYLGSSSSNYIY-C(O)NH2 (H-HHIYLGSSSSNYIY-NH2) [Compound 8]”: in the data set with Jurkat cells, the “Activity: lowest concentration that prevented loss of cell confluency” value is listed as “B (cell protection at 1.0 < x < 10.0 μM)”.
The same measure, in the same setting: in the case of “NH2-HKIYLGAVNYIY-C(O)NH2 (H-HKIYLGAVNYIY-NH2) [Compound 11]” it was “B (cell protection at 1.0 < x < 10.0 μM)”; in that of “NH2-KHIYLGAVNYIY-C(O)NH2 (H-KHIYLGAVNYIY-NH2) [Compound 10]”, “A (cell protection at x < 1.0 μM)”.
In the case of “NH2-KKIYLGAVNYIY-C(O)NH2 (H-KKIYLGAVNYIY-NH2) [Compound 9]”, in the data set with Jurkat cells, the “Activity: lowest concentration that prevented loss of cell confluency” value is recorded as “B (cell protection at 1.0 < x < 10.0 μM)”.
